Data: patent publication US11707440B2 (priority 2017, dated 2023)

Assays:
[1] = test system: adult subjects with TRD; format: in vivo, human
Description: Blood pressure and pulse/heart rate measurements were assessed supine with a completely automated device. Manual techniques were used only if an automated device is not available. Blood pressure and pulse/heart rate measurements were preceded by at least 5 minutes of rest in a quiet setting without distractions (e.g., television, cell phones).
Transient blood pressure increases peaked for the esketamine group at approximately 40 minutes post dose and returned to normal range at 90 minutes. […] The maximum mean increase (across all dosing days) in diastolic BP were 8.1 in the esketamine group and 4.5 in the active comparator group. FIGS. 7 and 8 present the means for measured blood pressure over time by treatment group in the double-blind phase.

[2] = test system: subjects with MDD at imminent risk for suicide; format: in vivo, human; conditions: esketamine 84 mg; safety analysis set
Description: Of the 68 subjects in the all randomized analysis set, 19 (27.9%) subjects discontinued from the double-blind phase. More subjects in the esketamine 84 mg group discontinued due to adverse events (5 subjects in the esketamine 84 mg group versus 1 subject in the placebo group) whereas more subjects in the placebo group discontinued due to lack of efficacy (4 subjects in the placebo group versus 1 subject in the esketamine 84 mg group).
More subjects in the esketamine 84 mg group than in the placebo group had all 8 dosing sessions (74.3% vs. 64.5%). Five subjects reduced their dose of esketamine from 84 mg to 56 mg. Of these, 3 reduced their dose due to an adverse event and 2 had their dose reduced in error and were considered major protocol deviations.

[3] = test system: subjects with TRD; format: in vivo, human; conditions: among the 76 subjects who discontinued intranasal esketamine
Text: The efficacy and safety analyses are based on the full (IND) analysis set and the full (OP/MA) analysis set. The full (IND) analysis set is defined as all subjects who receive at least 1 dose of intranasal study medication or 1 dose of oral antidepressant in the open-label IND phase (for direct-entry and transferred-entry non-responder subjects). The full (OP/MA) analysis is defined as all subjects who receive at least 1 dose of intranasal study medication or 1 dose of oral antidepressant in the OP/MA phase. Safety variables include cognition function over time, treatment-emergent adverse events (TEAEs), including TEAEs of special interest, vital signs over time, Clinician-Administered Dissociative Symptom Scale (CADDS) over time, and Modified Observer's Assessment of Alertness/Sedation (MOAA/S) score≤3. Efficacy variables include the MADRS which consists of 10 items that cover all the core depressive symptoms: each item is scored from 0 (symptom is not present or is normal) to 6 (severe or continuous presence of the symptom). A total score (0 to 60) is calculated by summing the scores of all 10 items. A higher score represents a more severe condition.
Overall, 90.1% of subjects experienced at least one TEAE in the IND and OP/MA phases.

[4] = test system: patients with treatment-resistant depression (TRD); assay: Response, remission and relapse rates (MADRS), Example 7; format: in vivo, human; conditions: Period 2 endpoint
Text: A similar trend for remission (defined as MADRS total score≤10) was observed across groups. […] Response and remission rates at the end of the open-label and follow-up phases are presented by type of treatment in the double-blind and open-label phases in Table 161.

[5] = test system: patients with treatment-resistant depression (TRD); assay: GAD-7, Example 7; format: in vivo, human
Description: Overall illness severity was assessed on the Clinical Global Impression of Severity (CGI-S) scale (Guy, “ECDEU Assessment Manual for Psychopharmacology-Revised (DHEW Publ No ADM 76-338)”, Rockville, Md.: U.S. Department of Health, Education, and Welfare, Public Health Service, Alcohol, Drug Abuse, and Mental Health Administration, NIMH Psychopharmacology Research Branch, Division of Extramural Research Programs; 1976, pp 218-222). Participants assessed their severity of anxiety on the Generalized Anxiety Disorder 7-item (GADS-7) Scale (See, Tables 157 and 15). See, Spitzer, “A brief measure for assessing generalized anxiety disorder—the GAD-7”, Arch. Intern. Med., 2006, 166(10):1092-1097.

[6] = Pharmacokinetics of intranasal esketamine in healthy subjects (Example 9); conditions: healthy subjects; 28, 56 and 84 mg
Description: Pharmacokinetic blood samples for measurement of esketamine and noresketamine concentrations in plasma were collected from predose until up to 24 hours after each intranasal esketamine regimen on Day 1 of each period.
Blood samples (4 mL each) for determination of esketamine and noresketamine plasma concentrations were collected into the appropriate collection tube (e.g., Vacutainer®) at timepoints 0.00, 0.12, 0.20, 0.37, 0.53, 0.67, 0.83, 1.00, 1.25, 1.50, 2.00, 3.00, 4.00, 6.00, 9.00, 12.00, 18.00, and 24.00 h. The total amount of blood to be drawn for clinical laboratory tests and PK evaluations is approximately 327 mL.
Plasma samples were analyzed for esketamine and noresketamine concentrations using the validated, specific and sensitive liquid chromatography coupled to tandem mass spectrometry (LC-MS/MS) achiral method of Example 8.
Serial PK blood samples (4 mL each) were collected for a 24-hour period from each subject (Periods 1, 2, and 3). […] Statistical Methods 1.6.4.1. Sample Size
The following key parameters of esketamine and noresketamine in plasma were calculated using noncompartmental methods and actual sampling times: Cmax, tmax, AUClast, AUC∞, t1/2,λ, and λz.

[7] = test system: adult subjects with TRD; conditions: US patients
Description: Adverse events were reported by the subject (or, when appropriate, by a caregiver, surrogate, or the subject's legally acceptable representative) for the duration of the study. Adverse events were followed by the investigator. TEAEs of special interest were examined separately.
The verbatim terms used in the eCRF by investigators to identify adverse events were coded using the MedDRA. All reported adverse events with onset during the double-blind induction phase (i.e., TEAEs, and adverse events that have worsened since baseline) were included in the analysis. For each adverse event, the percentage of subjects who experience at least 1 occurrence of the given event was summarized by treatment group. Adverse events occurring during the follow-up phase were summarized separately.
TEAEs of special interest were examined separately. AEs of special interest were listed in the SAP. Subjects who died, who discontinued treatment due to an adverse event, or who experienced a severe or a serious adverse event were summarized separately.
An adverse event is any untoward medical occurrence in a clinical study subject administered a medicinal (investigational or non-investigational) product. […]

[8] = test system: subjects with MDD at imminent risk for suicide; conditions: esketamine 84 mg
Description: The CADSS was measured prior to the start of each dose, at 40 minutes. 2 hours, and 4 hours postdose.

[9] = human, in vivo, other: intranasal

## CN[C@]1(c2ccccc2Cl)CCCCC1=O [esketamine, (S)-2-(2-chlorophenyl)-2-(methylamino)cyclohexanone]
[1]; double-blind phase
  Maximum mean increase in diastolic BP (across all dosing days): 8.1
[1]; [9]
  Time of peak of transient blood pressure increases: approximately 40 minutes post dose
  Time of return of blood pressure to normal range: 90 min
[2]
  Dose decreased during double-blind: No: 29 (82.9%)
  Dose decreased during double-blind: Yes: 6 (17.1%)
[3]
  Subjects with a discontinuation AE considered related (possibly, probably, or very likely) to esketamine: 51 subjects
[4]; 56 mg
  Proportion of responders (≥50% improvement from baseline in MADRS total score): 36.4%
[4]; 84 mg
  Proportion of responders (≥50% improvement from baseline in MADRS total score): 50.0%
[5]; 28 mg, Period 1
  GAD-7 LS mean difference from placebo: −0.21
[5]; 28 mg, Period 1, first day to day 8
  GAD-7 change from baseline, LS mean: −1.5
[5]; 28 mg, Period 2, first day to day 8 of period
  GAD-7 change from baseline, LS mean: −1.6
[5]; 56 mg, Period 1
  GAD-7 LS mean difference from placebo: −1.40
[5]; 56 mg, Period 1, first day to day 8
  GAD-7 change from baseline, LS mean: −3.1
[5]; 56 mg, Period 2
  GAD-7 LS mean difference from placebo: 0.60
[5]; 56 mg, Period 2, first day to day 8 of period
  GAD-7 change from baseline, LS mean: 1.0
[5]; 84 mg, Period 1, first day to day 8
  GAD-7 change from baseline, LS mean: −5.1
[5]; 84 mg, Period 2, first day to day 8 of period
  GAD-7 change from baseline, LS mean: −0.9
[6]
  AUC (AUClast and AUC∞) variability, range: 25.0% to 30.4
  Cmax variability (percent coefficient of variation), range across treatment groups: 35.7% to 36.7
[7]
  Patients who withdrew from nasal spray drug: 3 patients
[8]
  Time to resolution of dissociative symptoms (CADSS): ≤ 2 h
